{"source": "patent US12478640B2", "about": "“Inhalation of nitric oxide for treating respiratory diseases” (BEYOND AIR LTD, priority 2012, dated 2025)", "key": {"[1]": {"conditions": "healthy humans, cited from earlier work"}, "[2]": {"test_system": "bovine respiratory disease", "conditions": "intermittent gNO inhalation; cattle; cited from earlier work"}, "[3]": {"experiment": "phase I safety study: plasma cytokines, cytometric bead array", "assay_type": "in vivo, human", "conditions": "160 ppm gNO inhalation vs baseline", "from_the_text": "(§1) Cohort: 10 healthy adult volunteer subjects (5 males, 5 females), aged 20 to 62 years, were enrolled in the study after screening their medical history, a physical examination, pulmonary function tests and blood values. Exclusion criteria included individuals less than 19 years of age, pregnant females and unwilling to practice birth control during the study, diagnosed with pulmonary disease, epistaxis, hemoptysis, methemoglobinemia, organ transplant recipient or receiving antibiotic therapy.\n(§2) Regimen and post-treatment: After obtaining informed consent, treatment was initiated within 5 days of enrollment. Subjects were housed in a hospital ward and received 160 ppm gNO for 30 minutes every four hours (Q4h), five times a day, for five consecutive days by inhalation. Subjects returned for follow-up evaluations 3, 7 and 21 days after the final gNO administration. Subject safety was determined by monitoring vital signs, methemoglobin levels, lung function, blood chemistry, hematology, prothrombin time, inflammatory cytokine/chemokines levels and endothelial activation. These parameters were compared to baseline and at various time-points during and after gNO administration.\n(§3) Hematological assessment included a complete blood count and differentials (hemoglobin, hematocrit, red blood cell count, white blood cell count, white blood cell differential, and platelet count) were obtained in order to monitor blood chemistry, hematology and inflammation measurements. The blood chemistry profile included serum creatinine, and liver function tests such as aspartate aminotransferase (AST) serum glutamic oxaloacetic transaminase (SGOT), alkaline phosphatase, and gamma-glutamyl transferase (GGT). The effect of gNO on coagulation was determined by the prothrombin time (PT) and its derived measures of prothrombin ratio (PR) and international normalized ratio (INR). Heparinized plasma was collected at baseline and on days 1, 2, 4, and 5 of gNO administration, and on follow-up days 3, 7 and 21 and frozen at −80° C. Plasma cytokine levels were assessed using the human inflammation cytokine bead array kit (BD Bioscience, Canada). Plasma levels of angiopoietin Ang-1 and Ang-2 were determined by ELISA (R&D Systems, USA).\nFIGS. 6A-F present blood levels of various cytokines before and after inhalation of 160 ppm gaseous nitric oxide by 10 healthy human individuals, as measured from blood samples collected within 7 days prior to gNO administration, each day during the treatment and 8, 12 and 26 days thereafter, wherein FIG. 6A presents the plasma levels of tumor necrosis factor (TNF)α, interleukin (IL)-1β data is presented in FIG. 6B, IL-6 in FIG. 6C, IL-8 in FIG. 6D, IL-10 in FIG. 6E and IL-12p70 in FIG. 6F, as determined by a cytometric bead array while statistical differences are compared by repeated measures ANOVA with Bonferroni post test for parametric data (IL-6, IL-8, IL-10, IL-12p70), or Friedman test with Dunn's post test for non-parametric data (TNF and IL-1b)."}, "[4]": {"test_system": "P. aeruginosa", "conditions": "solid media, cited from earlier work"}, "[5]": {"conditions": "cited from earlier work"}, "[6]": {"test_system": "variety of microbes", "conditions": "200 ppm gNO, cited from earlier work"}, "[7]": {"experiment": "phase I safety study: pulmonary function tests", "assay_type": "in vivo, human", "from_the_text": "as §1, §2\nSubjects underwent full pulmonary function tests (PFT), including lung diffusing capacity (DLCO) by a trained technician utilizing a calibrated pulmonary function system (Jaeger MasterScreen, VIASYS Healthcare, USA) on screening and days 2, 8, 12 and 26. Spirometry test (Microloop by Micro Medical, England) was performed on days 1, 3 and 4. Effect of gNO on lung function and DLCO was determined by changes from baseline, treatment days and follow up days."}, "[8]": {"experiment": "phase I safety study: plasma angiopoietins Ang-1 and Ang-2", "assay_type": "in vivo, human", "conditions": "160 ppm gNO inhalation vs baseline", "from_the_text": "as §1, §2\nas §3, with “Heparinized plasma was collected at baseline and on days 1, 2, 4, and 5 of gNO administration, and on follow-up days 3, 7 and 21 and frozen at −80° C.” left out, “USA). […]” for “USA).”"}, "[9]": {"test_system": "Pseudomonas aeruginosa pneumonia", "conditions": "160 ppm gNO, intermittent 30 minute exposures; rat; cited from earlier work"}, "[10]": {"test_system": "chronic, non-healing wound", "conditions": "topical 200 ppm gNO; within the first three days; cited from earlier work"}, "[11]": {"conditions": "gNO concentrations below 200 ppm; 6 hours/day for 28 days; rats; cited from earlier work"}, "[12]": {"test_system": "influenza A/victoria/H3N2", "conditions": "160 ppm gNO, cited from earlier work"}, "[13]": {"test_system": "S. aureus", "conditions": "solid media, cited from earlier work"}, "[14]": {"test_system": "five planktonic species of methicillin resistant S. aureus (MRSA)", "conditions": "1,600 ppm hours of gNO; all five strains; cited from earlier work"}, "[15]": {"experiment": "phase I safety study in healthy adults: adverse events and vital signs", "assay_type": "in vivo, human", "conditions": "160 ppm gNO 30 min, 5 times a day, 5 days", "from_the_text": "as §1\n(§4) Regimen and post-treatment: After obtaining informed consent, treatment was initiated within 5 days of enrollment. […] Subject safety was determined by monitoring vital signs, methemoglobin levels, lung function, blood chemistry, hematology, prothrombin time, inflammatory cytokine/chemokines levels and endothelial activation. […]\n(§5) General medical examinations were performed by a pulmonary physician on screening and on days 8, 12 and 26 to obtain oxygenation and vital sign measurements. […] Oxygenation was measured with a pulse oximeter (Rad 57, Masimo Corporation, USA) which was used according to manufacturer's guidelines to measure functional oxygen saturation of arterial hemoglobin (SPO2) and heart rate. These parameters were measured continuously during every gNO administration and for 3.5 hours after the first treatment of the day. […]"}, "[16]": {"experiment": "phase I safety study: methemoglobin (SpMet) by pulse oximeter", "assay_type": "in vivo, human", "from_the_text": "as §1, §2\nThe levels of gNO, NO2, O2 and methemoglobin were monitored during the administration of gNO. The target gas mixture was 160 ppm gNO with a nitrogen dioxide (NO2) level of less than 5 ppm and an oxygen (O2) level ranging from 21% to 25%. Inspiratory NO, NO2 and O2 levels were continuously monitored by sampling from the mouthpiece sample port located about 6 millimeters from the mouth of the subject with an AeroNOx (Pulmonox, AB, Canada) NO, NO2 and O2 electrochemical analyzer. Delivery safety was determined by the number of occasions that NO2 exceeded 5 ppm, gNO exceeding 10% variation and O2 dropping below 20% during gNO administration. A commercially available noninvasive pulse oximeter (Rad 57, Masimo Corporation, USA) was used to measure saturation levels at the periphery of methemoglobin (SpMet).\nThese parameters were measured continuously during every gNO administration course and for 3.5 hours after the first treatment of the day. Daily serum samples were collected and frozen at −80° C. and the serum […] level was measured using the Griess reagent."}, "[17]": {"test_system": "highly pathogenic Avian Influenza H7N3", "conditions": "cited from earlier work"}, "[18]": {"experiment": "phase I safety study: oxygen saturation (SpO2) by pulse oximeter", "assay_type": "in vivo, human", "from_the_text": "as §1, §4, §5"}, "[19]": {"conditions": "gNO greater than 120 ppm, vs medical air"}, "[20]": {"conditions": "during the course of the study vs baseline"}}, "note": "Where two headings read alike, the source gives them in different places."}
{"smiles": "[N]=O", "note": "[gNO, nitric oxide]", "values": [{"measurement": "MetHb level", "setting": "[1]; inhalation of 128 ppm for 3 hours", "result": "> 5", "unit": "%"}, {"measurement": "MetHb level", "setting": "[1]; inhalation of 512 ppm for 55 minutes", "result": "> 5", "unit": "%"}, {"measurement": "clinical symptoms of bovine respiratory disease", "setting": "[2]", "result": "decrease the clinical symptoms"}, {"measurement": "plasma IL-1b level", "setting": "[3]", "result": "unaffected"}, {"measurement": "plasma IL-6 level", "setting": "[3]", "result": "unaffected"}, {"measurement": "plasma IL-8 level", "setting": "[3]", "result": "unaffected"}, {"measurement": "plasma IL-10 level", "setting": "[3]", "result": "unaffected"}, {"measurement": "plasma IL-12p70 level", "setting": "[3]", "result": "unaffected"}, {"measurement": "plasma TNF level", "setting": "[3]", "result": "unaffected"}, {"measurement": "survival (downward bactericidal trend)", "setting": "[4]; 50-160 ppm gNO", "result": "5-10%"}, {"measurement": "reduction of colony formation", "setting": "[4]; [19]", "result": "greater than 90%"}, {"measurement": "mortality", "setting": "[5]; 300 ppm gNO, first 1-2 days, group of 10 rats", "result": "Six of the animals treated with 300 ppm gNO died"}, {"measurement": "mortality", "setting": "[5]; 400 ppm gNO, first day of exposure, groups of 10 rats", "result": "all of the animals died"}, {"measurement": "mortality", "setting": "[5]; 500 ppm gNO, first day of exposure, groups of 10 rats", "result": "all of the animals died"}, {"measurement": "bactericidal effect", "setting": "[6]; all microorganisms tested", "result": "complete bactericidal effect"}, {"measurement": "reduction in CFU/mL", "setting": "[6]; every bacteria challenged", "result": "≥ 3", "unit": "log10"}, {"measurement": "pulmonary function tests", "setting": "[7]; during and after 160 ppm gNO treatments", "result": "did not reveal any abnormalities"}, {"measurement": "FEV1", "setting": "[7]; [20]", "result": "did not differ from baseline"}, {"measurement": "maximum mid-expiratory flow (MMEF)", "setting": "[7]; [20]", "result": "did not differ from baseline"}, {"measurement": "Ang-2/Ang-1 ratio", "setting": "[8]", "result": "not affected"}, {"measurement": "plasma Ang-1", "setting": "[8]", "result": "unaffected"}, {"measurement": "plasma Ang-2", "setting": "[8]", "result": "not affected"}, {"measurement": "leukocyte infiltration", "setting": "[9]", "result": "effective to reduce"}, {"measurement": "pulmonary bioburden", "setting": "[9]", "result": "effective to reduce"}, {"measurement": "biofilm of the wound", "setting": "[10]", "result": "no longer visibly present"}, {"measurement": "deaths", "setting": "[11]", "result": "No deaths occurred"}, {"measurement": "infectivity of virions", "setting": "[12]; MDCK cells", "result": "reducing the infectivity"}, {"measurement": "anti-viral effect, intermittent vs single exposure", "setting": "[12]; one 30 minute dose vs three 30 minute treatments Q4h", "result": "more evident in the intermittent form of exposure"}, {"measurement": "survival (downward bactericidal trend)", "setting": "[13]; 50-160 ppm gNO", "result": "5-10%"}, {"measurement": "reduction of colony formation", "setting": "[13]; [19]", "result": "greater than 90%"}, {"measurement": "population of planktonic MRSA strains", "setting": "[14]", "result": "reduction in the population"}, {"measurement": "tolerability of treatments", "setting": "[15]; 10 healthy adults, 250 administrations", "result": "well tolerated"}, {"measurement": "minor adverse events reported", "setting": "[15]; arm bruising from blood draws (1), numbing of tongue (2)", "result": "Three minor adverse events"}, {"measurement": "follow-up SpMet", "setting": "[16]; 3, 7 and 21 days after final exposure", "result": "did not show any residual increase in SpMet"}, {"measurement": "all 930 recorded methemoglobin percent levels (SpMet)", "setting": "[16]; 160 ppm gNO 30 min, 5 times a day, 5 days", "result": "< 5", "unit": "%"}, {"measurement": "SpMet increase between pretreatment and post treatment", "setting": "[16]; 160 ppm gNO 30 min, p<0.001", "result": "about 1%"}, {"measurement": "time for SpMet to return to baseline", "setting": "[16]; after 160 ppm gNO 30 min, prior to next administration", "result": 3.5, "unit": "h"}, {"measurement": "highest SpMet", "setting": "[16]; at the end of the 30 minutes treatment, 160 ppm gNO", "result": 2.5, "unit": "%"}, {"measurement": "accumulation of SpMet with repeated treatments", "setting": "[16]; five daily treatments for five consecutive days", "result": "no accumulative or lingering effect"}, {"measurement": "SpMet level of subjects undergoing the method", "setting": "[16]; general statement referring to the Examples", "result": "≤ 1", "unit": "%"}, {"measurement": "average increase of SpMet", "setting": "[16]; single 30 minutes treatment course, 160 ppm gNO, baseline 0.16 percent", "result": 0.9, "unit": "%"}, {"measurement": "infectivity of virions", "setting": "[17]", "result": "reducing the infectivity"}, {"measurement": "SpO2 change between pretreatment and post treatment", "setting": "[18]; 160 ppm gNO, not significant statistically nor clinically", "result": "decreased slightly"}, {"measurement": "hypoxemia (less than 85% SpO2)", "setting": "[18]; during or after 160 ppm gNO administration", "result": "No sudden incidences of hypoxemia"}]}
